The target in one test is T1, dopamine transporter (h) (Homo sapiens, UniProt Q01959).
T1 construct: expressed in transfected cells; host or cells: CHO cells
As to the kind of experiment: dopamine transporter (h) antagonist radioligand binding assay ([3H]BTCP). Conditions: 1.00E−06 M. Here is the method:
[The source words this procedure for another target and reports this target under the same test.] (§1) 12 compounds in binding assays (either sigma 1 or sigma 2 receptors) at 1.0×10^−6 M. Compound binding was calculated as a % inhibition of the binding of a ligand specific for each target.
(§2) The results are expressed as a percent of control specific binding: [(measured specific binding)/(control specific binding)]*100 and as a percent inhibition of control specific binding: 100−{[(measured specific binding)/(control specific binding)]*100}, obtained in the presence of the test compounds.
(§3) The IC50 values (concentration causing a half-maximal inhibition of control specific binding) and Hill coefficients (nH) were determined by non-linear regression analysis of the competition curves generated with mean replicate values using Hill equation curve fitting: Y={D+[(A−D)/(1+(C/C50)^nH)]} (where Y=specific binding, A=left asymptote of the curve, D=right asymptote of the curve, C=compound concentration, C50=IC50, and nH=slope factor). This analysis was performed using software developed at Cerep (Hill software) and validated by comparison with data generated by the commercial software SigmaPlot® 4.0 for Windows® (© 1997 by SPSS Inc.). The inhibition constants (Ki) were calculated using the Cheng Prusoff equation: Ki=(IC50)/(1+L/KD) (where L=concentration of ligand in the assay, and KD=affinity of the ligand for the receptor).

The next test concerns the target T2, sigma 2 (h) (Homo sapiens, UniProt Q5BJF2).
T2 construct: endogenous; endogenous in cells; host or cells: Jurkat cells
The test can be described thus: sigma 2 (h) agonist radioligand binding assay ([3H]DTG). The following applies: Sigma 2 Receptor, 1.00E−06 M. Here is the method: as §1, §2, §3

A further test deals with T3, sigma 1 (h) (Homo sapiens, UniProt Q99720).
T3 construct: endogenous; endogenous in cells; host or cells: Jurkat cells
The test can be described thus: sigma 1 (h) agonist radioligand binding assay ([3H](+)pentazocine). Conditions: Sigma 1 Receptor, 1.00E−06 M. Here is the method:
as §1, §2, §3

[1] abbreviates: 1st, read-out: % Inhibition of Control Specific Binding, 1st.
Where [2] appears, read: 2nd, read-out: % Inhibition of Control Specific Binding, 2nd.
Where [3] appears, read: read-out: % Inhibition of Control Specific Binding, 3rd.

Read-outs that look alike come from different tables or passages of the source.

T1 sequence (Q01959 whole entry): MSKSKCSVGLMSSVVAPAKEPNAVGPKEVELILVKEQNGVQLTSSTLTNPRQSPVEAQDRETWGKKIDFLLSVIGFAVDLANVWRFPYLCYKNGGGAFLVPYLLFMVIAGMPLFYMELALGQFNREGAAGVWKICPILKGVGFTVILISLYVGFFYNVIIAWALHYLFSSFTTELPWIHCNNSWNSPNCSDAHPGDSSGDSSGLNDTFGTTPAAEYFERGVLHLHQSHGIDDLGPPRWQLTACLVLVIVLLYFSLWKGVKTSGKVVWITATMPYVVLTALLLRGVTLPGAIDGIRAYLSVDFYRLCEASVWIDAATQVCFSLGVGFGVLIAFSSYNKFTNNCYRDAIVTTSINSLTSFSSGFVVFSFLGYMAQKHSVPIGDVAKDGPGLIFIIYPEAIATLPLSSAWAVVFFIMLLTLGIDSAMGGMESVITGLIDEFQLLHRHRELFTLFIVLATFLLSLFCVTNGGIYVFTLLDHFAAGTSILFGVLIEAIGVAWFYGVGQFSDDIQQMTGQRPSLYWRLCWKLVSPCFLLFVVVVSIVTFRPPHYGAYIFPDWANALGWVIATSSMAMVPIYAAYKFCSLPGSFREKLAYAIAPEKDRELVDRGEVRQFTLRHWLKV
T2 sequence (Q5BJF2 whole entry): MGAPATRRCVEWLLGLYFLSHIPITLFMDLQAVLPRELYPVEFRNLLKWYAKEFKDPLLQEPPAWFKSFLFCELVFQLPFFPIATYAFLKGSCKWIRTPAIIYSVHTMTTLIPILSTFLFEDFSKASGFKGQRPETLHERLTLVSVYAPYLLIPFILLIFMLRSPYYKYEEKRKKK
T3 sequence (Q99720 whole entry): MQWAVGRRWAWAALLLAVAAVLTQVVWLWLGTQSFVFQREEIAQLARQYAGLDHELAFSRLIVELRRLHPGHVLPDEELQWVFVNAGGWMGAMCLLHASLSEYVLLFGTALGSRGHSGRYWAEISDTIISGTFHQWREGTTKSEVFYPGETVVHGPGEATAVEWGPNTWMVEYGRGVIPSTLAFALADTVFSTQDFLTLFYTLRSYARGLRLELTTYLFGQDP

With `Cn1c(=O)n(CCCCN2CCC3(CC2)OCc2ccccc23)c2ccccc21` [CM699, reference compound], the inhibition at 1 µM was 18.6% on dopamine transporter (h) (setting [1]); 23.2% on dopamine transporter (h) (setting [2]); 20.9% at dopamine transporter (h) (setting [3]); 88% on sigma 2 (h) (setting [1]); 95.9% on sigma 2 (h) (setting [2]); 92% on sigma 2 (h) (setting [3]). For the same compound, the inhibition at 1 µM was determined as 95.6% at sigma 1 (h) (setting [1]), 94% on sigma 1 (h) (setting [2]) and 94.8% at sigma 1 (h) (setting [3]).
`O=C1CCCc2ccccc2N1CCCCN1CCN(c2cccc(Cl)c2)CC1` [SMB107, 1-(4-(4-(3-Chlorophenyl)piperazin-1-yl)butyl)-1,3,4,5-tetrahydro-2H-benzo[b]azepin-2-one]: the inhibition at 1 µM at dopamine transporter (h) (setting [1]) is 24.6%; at dopamine transporter (h) (setting [2]), 24.4%; on dopamine transporter (h) (setting [3]) it was 24.5%; at sigma 2 (h) (setting [1]) it was 104%; on sigma 2 (h) (setting [2]) it was 98.7%; on sigma 2 (h) (setting [3]), 101%. Moreover, the inhibition at 1 µM at sigma 1 (h) (setting [1]) was determined as 96.7%; at sigma 1 (h) (setting [2]) it was 97.6%; at sigma 1 (h) (setting [3]) it was 97.1%.
For the compound `O=C1COCc2ccccc2N1CCCCN1CCN(c2cccc(Cl)c2)CC1` [SMB108, 1-(4-(4-(3-Chlorophenyl)piperazin-1-yl)butyl)-1,5-dihydrobenzo[e][1,4]oxazepin-2(3H)-one], the inhibition at 1 µM on dopamine transporter (h) (setting [1]) stood at 28.3%; on dopamine transporter (h) (setting [2]) it was 25.9%; at dopamine transporter (h) (setting [3]), 27.1%; at sigma 2 (h) (setting [1]), 95%; on sigma 2 (h) (setting [2]) it was 99.8%; on sigma 2 (h) (setting [3]), 97.4%. The inhibition at 1 µM on sigma 1 (h) (setting [1]) amounted to 93.8%; on sigma 1 (h) (setting [2]), 95.4%; on sigma 1 (h) (setting [3]), 94.6%.
As to `O=C1COCc2ccccc2N1CCCCN1CCC2(CC1)OCc1ccccc12` [STG135, 1-(4-(3H-spiro[isobenzofuran-1,4′-piperidin]-1′-yl)butyl)-1,5-dihydrobenzo[e][1,4]oxazepin-2(3H)-one], the inhibition at 1 µM at dopamine transporter (h) (setting [1]) turned out to be 6%; at dopamine transporter (h) (setting [2]), 3.5%; at dopamine transporter (h) (setting [3]) it was 4.8%; on sigma 2 (h) (setting [1]), 106%; on sigma 2 (h) (setting [2]), 84.4%; on sigma 2 (h) (setting [3]), 95.2%. The inhibition at 1 µM on sigma 1 (h) (setting [1]) amounted to 97.9%; on sigma 1 (h) (setting [2]), 94.5%; at sigma 1 (h) (setting [3]), 96.2%.
As to `O=C1CCCc2ccccc2N1CCCCN1CCC2(CC1)OCc1ccccc12` [STG136, 1-(4-(3H-spiro[isobenzofuran-1,4′-piperidin]-1′-yl)butyl)-1,3,4,5-tetrahydro-2H-benzo[b]azepin-2-one], the inhibition at 1 µM was determined as 7.9% at dopamine transporter (h) (setting [1]); 11.4% at dopamine transporter (h) (setting [2]); 9.7% at dopamine transporter (h) (setting [3]); 90.3% at sigma 2 (h) (setting [1]); 100% on sigma 2 (h) (setting [2]); 95.3% on sigma 2 (h) (setting [3]). Moreover, the inhibition at 1 µM at sigma 1 (h) (setting [1]) was 98.8%; on sigma 1 (h) (setting [2]) it was 98.4%; on sigma 1 (h) (setting [3]) it was 98.6%.
For the compound `O=C1CCCc2ccccc2N1CCCCN1CCN(c2ccccc2Cl)CC1` [STG158], the inhibition at 1 µM on dopamine transporter (h) (setting [1]) was -5.6%; on dopamine transporter (h) (setting [2]), -2.8%; at dopamine transporter (h) (setting [3]) it was -4.2%; on sigma 2 (h) (setting [1]), 93.2%; at sigma 2 (h) (setting [2]), 100%; at sigma 2 (h) (setting [3]), 96.7%. Further, the figures for the inhibition at 1 µM at sigma 1 (h) (setting [1]), at sigma 1 (h) (setting [2]) and on sigma 1 (h) (setting [3]) were 95.7%, 93.8% and 94.7%, respectively.
As to `O=C1CSCc2ccccc2N1CCCCN1CCC2(CC1)OCc1ccccc12` [STG187], the inhibition at 1 µM was 12.9% at dopamine transporter (h) (setting [1]); 13.1% at dopamine transporter (h) (setting [2]); 13% at dopamine transporter (h) (setting [3]); 96.5% on sigma 2 (h) (setting [1]); 108% at sigma 2 (h) (setting [2]); 102% at sigma 2 (h) (setting [3]). Also, the values for the inhibition at 1 µM at sigma 1 (h) (setting [1]), at sigma 1 (h) (setting [2]) and on sigma 1 (h) (setting [3]) were 93.6%, 98.9% and 96.3%, respectively.
Regarding `O=C1CCCc2ccccc2N1CCCCN1CCN(c2ccc(Cl)cc2)CC1` [STG188], the inhibition at 1 µM turned out to be 26.5% at dopamine transporter (h) (setting [1]); 23.2% on dopamine transporter (h) (setting [2]); 24.8% on dopamine transporter (h) (setting [3]); 82.9% on sigma 2 (h) (setting [1]); 85.9% at sigma 2 (h) (setting [2]); 84.4% at sigma 2 (h) (setting [3]). Also, the inhibition at 1 µM on sigma 1 (h) (setting [1]) came out at 98.8%; at sigma 1 (h) (setting [2]), 99.2%; on sigma 1 (h) (setting [3]) it was 99%.
Turning to `O=C1COCc2ccccc2N1CCCCN1CCN(c2ccc(Cl)cc2)CC1` [STG189], the inhibition at 1 µM turned out to be 8.6% on dopamine transporter (h) (setting [1]); 5.1% at dopamine transporter (h) (setting [2]); 6.8% at dopamine transporter (h) (setting [3]); 82.2% on sigma 2 (h) (setting [1]); 78.2% on sigma 2 (h) (setting [2]); 80.2% at sigma 2 (h) (setting [3]). Besides, the inhibition at 1 µM at sigma 1 (h) (setting [1]) amounted to 92.8%; on sigma 1 (h) (setting [2]), 93.6%; on sigma 1 (h) (setting [3]), 93.2%.
`O=C1CSCc2ccccc2N1CCCCN1CCN(c2ccc(Cl)cc2)CC1` [STG190]: the inhibition at 1 µM on dopamine transporter (h) (setting [1]) was found to be 9.2%; at dopamine transporter (h) (setting [2]) it was 14.8%; on dopamine transporter (h) (setting [3]), 12%; on sigma 2 (h) (setting [1]), 96.4%; at sigma 2 (h) (setting [2]), 95.5%; on sigma 2 (h) (setting [3]), 95.9%. Further, the inhibition at 1 µM at sigma 1 (h) (setting [1]), at sigma 1 (h) (setting [2]) and at sigma 1 (h) (setting [3]) was 101% throughout.
As for `O=C1CSCc2ccccc2N1CCCCN1CCN(c2cccc(Cl)c2)CC1` [STG191], the inhibition at 1 µM at dopamine transporter (h) (setting [1]) is 21.8%; at dopamine transporter (h) (setting [2]) it was 27.6%; at dopamine transporter (h) (setting [3]), 24.7%; on sigma 2 (h) (setting [1]) it was 86.2%; on sigma 2 (h) (setting [2]) it was 102%; at sigma 2 (h) (setting [3]), 94.4%. Also, the inhibition at 1 µM was 98.6% at sigma 1 (h) (setting [1]), 98.5% at sigma 1 (h) (setting [2]) and 98.6% at sigma 1 (h) (setting [3]).
On to `O=C1CSCc2ccccc2N1CCCCN1CCN(c2ccccc2Cl)CC1` [STG192], for which the inhibition at 1 µM came out at 12.6% on dopamine transporter (h) (setting [1]); 4.3% on dopamine transporter (h) (setting [2]); 8.5% on dopamine transporter (h) (setting [3]); 56.6% on sigma 2 (h) (setting [1]); 43.4% on sigma 2 (h) (setting [2]); 50% at sigma 2 (h) (setting [3]). For the same compound, the inhibition at 1 µM at sigma 1 (h) (setting [1]) turned out to be 53.5%; on sigma 1 (h) (setting [2]), 53.2%; on sigma 1 (h) (setting [3]), 53.3%.
